Target: T1, CPT-1a (carnitine palmitoyltransferase-1) (Mus musculus, UniProt P97742)
T1 sequence (P97742 2-773): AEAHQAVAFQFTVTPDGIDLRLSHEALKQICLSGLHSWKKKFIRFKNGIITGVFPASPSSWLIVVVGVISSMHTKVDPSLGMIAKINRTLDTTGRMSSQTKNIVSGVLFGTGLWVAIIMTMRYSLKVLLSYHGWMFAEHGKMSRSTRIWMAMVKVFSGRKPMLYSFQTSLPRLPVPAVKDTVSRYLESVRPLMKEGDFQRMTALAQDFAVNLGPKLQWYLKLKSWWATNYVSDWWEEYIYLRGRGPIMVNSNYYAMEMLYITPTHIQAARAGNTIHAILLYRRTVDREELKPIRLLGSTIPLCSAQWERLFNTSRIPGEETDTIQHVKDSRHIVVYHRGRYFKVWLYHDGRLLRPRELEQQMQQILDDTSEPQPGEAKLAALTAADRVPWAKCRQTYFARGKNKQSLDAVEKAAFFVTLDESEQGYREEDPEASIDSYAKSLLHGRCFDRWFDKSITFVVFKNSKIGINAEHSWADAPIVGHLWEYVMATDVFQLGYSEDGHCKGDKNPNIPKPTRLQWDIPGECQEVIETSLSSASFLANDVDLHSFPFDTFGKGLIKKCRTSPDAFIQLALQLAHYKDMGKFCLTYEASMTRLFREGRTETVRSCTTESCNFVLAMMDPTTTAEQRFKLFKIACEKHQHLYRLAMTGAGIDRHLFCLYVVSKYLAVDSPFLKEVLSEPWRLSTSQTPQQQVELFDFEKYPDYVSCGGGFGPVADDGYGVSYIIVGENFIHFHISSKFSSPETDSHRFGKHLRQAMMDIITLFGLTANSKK
Type: biochemical

For `CCOC(=O)[C@@]1(CCCCCCOc2ccc(Cl)cc2)CO1` [Eto, etomoxir], the “palmitoyl-CoA-driven respiration in permeabilized mouse BMDMs pretreated with et” value was less than 3 µM.
